This is an account of results in US10294217B2, “Fluoroindole derivatives as muscarinic M1 receptor positive allosteric modulators” (Suven Life Sciences Limited, priority 2015, dated 2019).

In series [1] the test system is Male Wistar rats. Nature of the series: Object recognition task model. Conditions: 0.3 mg/kg, p.o. In kind it is in vivo. The protocol: Object Recognition Task Model
The cognition enhancing properties of compounds of this invention were estimated by using this model.
Male Wistar rats (8-10 weeks old) were used as experimental animals. Four animals were housed in each cage. Animals were kept on 20% food deprivation from a day prior to experimentation. Water was provided ad libitum throughout the experiment. Animals were maintained on a 12 hours light/dark cycle in temperature and humidity controlled room. The experiment was carried out in an open field made up of acrylic. Rats were habituated to individual arenas (open field) for 1 hour in the absence of any objects on day 1.
One group of 12 rats received vehicle and another set of animals received compound of the formula (I), before the familiar (T1) and choice (T2) trials. During the familiarization phase, (T1), the rats were placed individually in the arena for 3 minutes, in which two identical objects (a1 and a2) were positioned 10 cm from the wall. 24 hours after T1, trial for long-term memory test was performed. The same rats were placed in the same arena as they were placed in T1 trial. During the choice phase (T2) rats were allowed to explore the arena for 3 minutes in presence of a copy of familiar object (a3) and one novel object (b). During the T1 and T2 trial, explorations of each object (defined as sniffing, licking, chewing or having moving vibrissae whilst directing the nose towards the object at a distance of less than 1 cm) were recorded using stopwatch. • T1 is the total time spent exploring the familiar objects (a1+a2). • T2 is the total time spent exploring the familiar object and novel object (a3+b). • Discriminative index=Time spent with novel object/(time spent with novel and familiar object).
The object recognition test was performed as described by Behavioural Brain Research, 1988, 31, 47-59 and the results are provided in table 5.

The nature of series [2]: Protein binding assay (HT dialysis), human matrices. Format: in vitro ADME. Conditions: Mean ± SEM. The protocol: (§1) Unbound fractions of new chemical entities in plasma, brain homogenate and liver microsomes were determined using high-throughput dialysis (HT dialysis). Briefly, dialysis membranes were soaked in deionized water for 20 minutes and then in deionized water with 30% ethanol for 15 minutes and finally in phosphate buffer until use. Membranes were rinsed in phosphate buffer before assembling. The membranes were layered between teflon bars of dialysis assembly. Stock solutions of test compounds were prepared at 10 mM in DMSO, diluted to 1 mM in acetonitrile and further diluted to 100 μM in mixture of water and acetonitrile (1:1 v/v). Human plasma (pool of 3) was prepared from human blood (3 donors) by centrifuging at 4000 rpm for 10 min at 4° C. Rat and dog blood were obtained on the day of the study and centrifuged to obtain plasma. Rat brains were isolated, cleaned and homogenized with 2 volumes of buffer (3 fold dilution). Liver microsomes were prepared at 0.5 mg/mL in phosphate buffer (100 mM, pH 7.4). The dialysate chambers were loaded with 150 μL of 100 mM phosphate buffer (pH 7.4) in triplicates. The matrix chambers were loaded with 150 μL of the plasma or brain homogenate or microsomal suspension spiked with test compounds at a final concentration of 1 μM. 50 μL of the sample was removed from both the chambers at 0 h. The plate was sealed and incubated at 37° C. for 6 h at 100 rpm. After 6 h, 50 μL of the sample was removed from both the chambers. Equal volumes of buffer or human plasma/microsomal suspension were added to the plasma/microsomal and buffer samples respectively to create identical sample matrices for analysis. The samples were precipitated with 150 μL of acetonitrile containing fluoxetine as an internal standard. All the samples were centrifuged at 10000 rpm for 10 minutes at 4° C.

Series [3] can be described thus: Protein binding assay (HT dialysis), dog matrices. In kind it is in vitro ADME. Conditions: Mean ± SEM. As to the method:
as §1

A short description of series [4]: Rodent pharmacokinetic study. Format: in vivo, Male Wistar rats. Conditions: male, Wistar. The protocol:
Rodent Pharmacokinetic Study
Male Wistar rats (260±50 grams) were used as experimental animals. Animals were housed individually in polypropylene cage. Two days prior to study, male Wistar rats were anesthetized with isoflurane for surgical placement of jugular vein catheter. Rats were randomly divided for oral (3 mg/kg) and intravenous (i.v.) (1 mg/kg) dosing (n=3/group) and fasted overnight before oral dosing (p.o.). However, rats allocated to intravenous dosing food and water was provided ad libitum.
At pre-determined point, blood was collected through jugular vein and replenished with an equivalent volume of normal saline. Collected blood was transferred into a labeled eppendorf tube containing 10 μL of heparin as an anticoagulant. Typically blood samples were collected at following time points: 0.08, 0.25, 0.5, 1, 2, 4, 6, 8, and 24 hours post dose. Blood was centrifuged at 4000 rpm for 10 minutes. Plasma was separated and stored frozen at −80° C. until analysis. The concentrations of the test compounds were quantified in plasma by qualified LC-MS/MS method using suitable extraction technique. The test compounds were quantified in the calibration range around 1-1000 ng/mL in plasma. Study samples were analyzed using calibration samples in the batch and quality control samples spread across the batch.
Pharmacokinetic parameters Cmax, AUCt, T1/2, Clearance, and Bioavailability (% F) were calculated by non-compartmental model using standard non-compartmental model by using Phoenix WinNonlin 6.0.2 or 6.0.3 version Software package and the results are tabulated in table 3.

The nature of series [5]: Rodent brain penetration study. Format: in vivo, Male Wistar rats. Conditions: male, Wistar, rat, oral; 3 mg/kg, p.o.; brain-plasma ratio; read-out: Single dose Rat Brain Penetration (Cb/Cp). The essentials:
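Male Wistar rats dosed orally at 3 mg/kg (free base equivalent), n=3 per time point. Plasma and brain collected at 0.5, 1 and 2 h. Compound levels in plasma and brain homogenate quantified by LC-MS/MS, calibration range 1-500 ng/mL.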

Setting [6] is: mean ± S.E.M, choice trial 24 hours after T1.

Usually AUC(0-t) stands for exposure summed from dosing to a finite time, without extrapolation to infinity. Usually half-life stands for how long it takes for the measured level to halve. A word on the clearance: it is the rate of elimination divided by the concentration. Usually bioavailability stands for dose-corrected exposure relative to a reference, in per cent. What is called Cmax is the maximum level reached in the sampled fluid or tissue. `O=C(N[C@H]1CCCC[C@@H]1O)c1cn(Cc2ccnc(F)c2)c2c(F)ccc(F)c12` [Example 8, N-[(1S,2S)-2-Hydroxycyclohexyl]-1-(2-fluoropyridin-4-ylmethyl)-4,7-difluoro-1H-indole-3-carboxamide]: the Inference result in series [1] is given as “Active”. Moreover, the “Exploration time Familiar object” value in series [1] (setting [6]) was 7.59 ± 1.02 s. In series [1] (setting [6]), the “Exploration time Novel object” value worked out at 14.36 ± 1.56 s. Further, the fraction unbound at 6 h, 1 μM worked out at 0.626 ± 0.037 in series [2] (pH 7.4, Human liver microsomes 0.5 mg/mL, n = 3, read-out: Fu Microsomes); 0.079 ± 0.006 in series [2] (pH 7.4, Human plasma, 37° C., n = 3, read-out: Fu Plasma); 0.679 ± 0.066 in series [3] (pH 7.4, Dog liver microsomes 0.5 mg/mL, n = 3, read-out: Fu Microsomes); 0.064 ± 0.01 in series [3] (pH 7.4, Dog plasma, 37° C., n = 3, read-out: Fu Plasma). The AUC(0-t) came out at 1830 ± 562 ng·h/mL in series [4] (iv, 1 mg/kg, rat plasma) and 2500 ± 842 ng·h/mL in series [4] (oral, 3 mg/kg, rat plasma). Besides, the half-life in series [4] (iv, 1 mg/kg, rat plasma) is 1.8 ± 0.3 h; in series [4] (oral, 3 mg/kg, rat plasma) it was 2.3 ± 1.8 h. Further, the clearance in series [4] (plasma, iv, 1 mg/kg, rat) amounted to 9 ± 3 mL/min/kg. For the same compound, the bioavailability in series [4] (plasma, oral 3 mg/kg vs i.v. 1 mg/kg, rat, read-out: % F (Bioavailability)) was determined as 45 ± 15%. For the same compound, the concentration in series [4] (oral, 3 mg/kg, rat plasma) peaked (Cmax) at 578 ± 170 ng/mL. The Kp in series [5] is 1.1 ± 0.1.
